In BindingDB's records for patent US20250115591 (Inflazome, 2025):

The compounds below were run against NACHT, LRR and PYD domains-containing protein 3 (Homo sapiens, UniProt Q96P20) (assay: THP-1 Cells Pyroptosis Assay).
Chain of NACHT, LRR and PYD domains-containing protein 3 (Q96P20 whole entry, the tested form may be a part): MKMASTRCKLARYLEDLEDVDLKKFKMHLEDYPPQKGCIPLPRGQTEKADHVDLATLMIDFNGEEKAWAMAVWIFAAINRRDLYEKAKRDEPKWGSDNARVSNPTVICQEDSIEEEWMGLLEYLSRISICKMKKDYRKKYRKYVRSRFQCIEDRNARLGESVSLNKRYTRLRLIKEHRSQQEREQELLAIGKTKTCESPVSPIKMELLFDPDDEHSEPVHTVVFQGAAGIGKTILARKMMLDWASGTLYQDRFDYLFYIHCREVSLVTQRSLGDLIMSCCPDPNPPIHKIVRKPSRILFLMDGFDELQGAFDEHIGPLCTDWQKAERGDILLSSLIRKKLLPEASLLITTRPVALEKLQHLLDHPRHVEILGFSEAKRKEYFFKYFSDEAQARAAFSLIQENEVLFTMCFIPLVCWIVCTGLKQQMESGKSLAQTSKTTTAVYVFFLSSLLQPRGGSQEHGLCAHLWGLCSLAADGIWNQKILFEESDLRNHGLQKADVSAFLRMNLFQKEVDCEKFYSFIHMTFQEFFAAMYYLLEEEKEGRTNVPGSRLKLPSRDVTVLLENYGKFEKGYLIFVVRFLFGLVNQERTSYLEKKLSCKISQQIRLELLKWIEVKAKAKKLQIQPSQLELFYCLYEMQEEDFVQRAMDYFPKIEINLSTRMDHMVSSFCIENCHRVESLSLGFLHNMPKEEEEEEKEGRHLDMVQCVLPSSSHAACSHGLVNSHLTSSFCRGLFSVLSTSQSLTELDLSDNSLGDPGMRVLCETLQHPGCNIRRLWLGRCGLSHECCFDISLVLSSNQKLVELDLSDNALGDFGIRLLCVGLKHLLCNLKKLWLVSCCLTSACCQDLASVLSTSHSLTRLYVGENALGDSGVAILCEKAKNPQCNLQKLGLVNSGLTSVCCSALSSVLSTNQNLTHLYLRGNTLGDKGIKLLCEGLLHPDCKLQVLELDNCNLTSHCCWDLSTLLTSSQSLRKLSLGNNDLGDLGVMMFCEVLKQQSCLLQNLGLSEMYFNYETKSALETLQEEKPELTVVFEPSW
Procedure: 1. Seed THP-1 cells (25,000 cells/well) containing 1.0 μg/ml LPS in 40μ of RPMI medium (without FBS) in 96-well, black walled, clear bottom cell culture plates coated with poly-D-lysine (VWR #734-0317)2. Add 5 μl compound (8 points half-log dilution, with […]) or vehicle (DMSO 0.1% FAC) to the appropriate wells3. Incubate for 3 hrs at 37° C. and 5% CO24. Add 5 μl nigericin (Sigma #N7143) (FAC 5 μM) to all wells5. Incubate for 1 hr at 37° C. and 5% CO26. At the end of the incubation period, spin plates at 300×g for 3 mins and remove supernatant7. Then add 50 μl of resazurin (Sigma #R7017) (FAC 100 μM resazurin in RPMI medium without FBS) and incubate plates for a further 1-2 hrs at 37° C. and 5% CO28. Plates were read in an Envision reader at Ex 560 nm and Em 590 nm9. IC50 data is fitted to a non-linear regression equation (log inhibitor vs response-variable slope 4-parameters)
With CCCCN1CC(S(=O)(=O)NC(=O)Nc2c3c(cc4c2CCC4)CCC3)C1 [US20250115591, Example 83] the IC50 was under 10 µM.
For CCN1[C@@H]2CC[C@H]1C[C@H](S(=O)(=O)NC(=O)Nc1c3c(cc4c1CCC4)CCC3)C2 [US20250115591, Example 70], the IC50 was under 1 µM.
CC(=O)N1CCCC(S(=O)(=O)NC(=O)Nc2c3c(cc4c2CCC4)CCC3)C1 (stereo unspecified) [US20250115591, Example 56] was tested, and the IC50 was under 10 µM.
CCNC(=O)N1CCC(S(=O)(=O)NC(=O)Nc2c3c(cc4c2CCC4)CCC3)C1 (stereo unspecified) [US20250115591, Example 30] gave an IC50 of under 10 µM.
In the case of CC(=O)N1CC(S(=O)(=O)NC(=O)Nc2c3c(cc4c2CCC4)CCC3)C1 [US20250115591, Example 74], the IC50 is reported as under 10 µM.
Work on CCN1CCC(S(=O)(=O)NC(=O)Nc2c3c(cc4c2CCC4)CCC3)C1 (stereo unspecified) [US20250115591, Example 37] yielded an IC50 of under 1 µM.
CC(C)N1[C@@H]2CC[C@H]1C[C@H](S(=O)(=O)NC(=O)Nc1c3c(cc4c1CCC4)CCC3)C2 [US20250115591, Example 69] was tested, and the IC50 was under 1 µM.
Compound CC(C)NC(=O)N1CCCC(S(=O)(=O)NC(=O)Nc2c3c(cc4c2CCC4)CCC3)C1 (stereo unspecified) [US20250115591, Example 33] has an IC50 of under 10 µM.
O=C(Nc1c2c(cc3c1CCC3)CCC2)NS(=O)(=O)C1CN(C2CCCCC2)C1 [US20250115591, Example 98] was tested, and the IC50 was under 1 µM.
In the case of CCNC(=O)N1CCC(S(=O)(=O)NC(=O)Nc2c3c(cc4c2CCC4)CCC3)CC1 [US20250115591, Example 26], the IC50 is reported as under 10 µM.
Work on CC(C)N1[C@@H]2CC[C@H]1C[C@@H](S(=O)(=O)NC(=O)Nc1c3c(cc4c1CCC4)CCC3)C2 [US20250115591, Example 45] yielded an IC50 of under 1 µM.
Compound CNC(=O)N1CCC(S(=O)(=O)NC(=O)Nc2c3c(cc4c2CCC4)CCC3)CC1 [US20250115591, Example 28] has an IC50 of under 10 µM.
Work on C=CCN1CC(S(=O)(=O)NC(=O)Nc2c3c(cc4c2CCC4)CCC3)C1 [US20250115591, Example 132] yielded an IC50 of under 1 µM.
With CCN1CCCC(S(=O)(=O)NC(=O)Nc2c3c(cc4c2CCC4)CCC3)CC1 (stereo unspecified) [US20250115591, Example 194] the IC50 was under 1 µM.
For CCC(C)N1CC(S(=O)(=O)NC(=O)Nc2c(C(C)C)cc(Cl)cc2C(C)C)C1 (stereo unspecified) [US20250115591, Example 187], the IC50 was under 10 µM.
CCC(C)N1CCC(S(=O)(=O)NC(=O)Nc2c3c(cc4c2CCC4)CCC3)C1 (stereo unspecified) [US20250115591, Example 82] gave an IC50 of under 10 µM.
In the case of CCC(C)N1CC(S(=O)(=O)NC(=O)Nc2c(C(C)C)cc(F)cc2C(C)C)C1 (stereo unspecified) [US20250115591, Example 143], the IC50 is reported as under 10 µM.
For CC(=O)N1CCC(S(=O)(=O)NC(=O)Nc2c3c(cc4c2CCC4)CCC3)C1 (stereo unspecified) [US20250115591, Example 38], the IC50 was under 10 µM.
In the case of CC(C)(C)OC(=O)/N=C(/NC(=O)OC(C)(C)C)N1CC(S(=O)(=O)NC(=O)Nc2c3c(cc4c2CCC4)CCC3)C1 [US20250115591, Example 112], the IC50 is reported as under 10 µM.
With O=C(Nc1c2c(cc3c1CCC3)CCC2)NS(=O)(=O)C1CN(C2CCC2)C1 [US20250115591, Example 18] the IC50 was under 1 µM.
With O=C(Nc1c2c(cc3c1CCC3)CCC2)NS(=O)(=O)C1CCNC1 (stereo unspecified) [US20250115591, Example 55] the IC50 was under 10 µM.
O=C(Nc1c2c(cc3c1CCC3)CCC2)NS(=O)(=O)C1CN(C2CCCC2)C1 [US20250115591, Example 99] showed an IC50 of under 1 µM.
With CN(C(=O)OC(C)(C)C)/C(=N\C(=O)OC(C)(C)C)N1CC(S(=O)(=O)NC(=O)Nc2c3c(cc4c2CCC4)CCC3)C1 [US20250115591, Example 127] the IC50 was under 10 µM.
For COc1cc(-c2ccc3c(c2NC(=O)NS(=O)(=O)c2cn(C(C)C)c(=O)cn2)CCC3)ccn1 [US20250115591, Example 156], the IC50 was under 1 µM.
For CCCCCCn1cc(S(=O)(=O)NC(=O)Nc2c3c(cc4c2CCC4)CCC3)c(=O)[nH]c1=O [US20250115591, Example 17], the IC50 was under 10 µM.
Work on O=C(Nc1c2c(cc3c1CCC3)CCC2)NS(=O)(=O)C1CN(C2CNC2)C1 [US20250115591, Example 114] yielded an IC50 of under 10 µM.
C[C@@H](O)Cn1cc(S(=O)(=O)NC(=O)Nc2c3c(cc4c2CCC4)CCC3)ccc1=O [US20250115591, Example 183] showed an IC50 of under 1 µM.
CC(C)(C)N1CC(S(=O)(=O)NC(=O)Nc2c3c(cc4c2CCC4)CCC3)C1 [US20250115591, Example 93] showed an IC50 of under 1 µM.
Compound CCN1[C@@H]2CC[C@H]1C[C@@H](S(=O)(=O)NC(=O)Nc1c3c(cc4c1CCC4)CCC3)C2 [US20250115591, Example 52] has an IC50 of under 10 µM.
CC(C)(C)OC(=O)N1CC(N2CC(S(=O)(=O)NC(=O)Nc3c4c(cc5c3CCC5)CCC4)C2)C1 [US20250115591, Example 106] was tested, and the IC50 was under 10 µM.
O=C(Nc1c2c(cc3c1CCC3)CCC2)NS(=O)(=O)C1CN(C2CC2)C1 [US20250115591, Example 85] showed an IC50 of under 1 µM.
CNC(=N)N1CC(S(=O)(=O)NC(=O)Nc2c3c(cc4c2CCC4)CCC3)C1 [US20250115591, Example 129] was tested, and the IC50 was under 10 µM.
Cn1cc(S(=O)(=O)NC(=O)Nc2c3c(cc4c2CCC4)CCC3)c(=O)n(C)c1=O [US20250115591, Example 16] showed an IC50 of under 10 µM.
Compound CC(C)N1CC(S(=O)(=O)NC(=O)Nc2c3c(cc4c2CCC4)CCC3)CC1C(=O)N(C)C (stereo unspecified) [US20250115591, Example 148] has an IC50 of under 10 µM.
Compound CN(C)C(=O)CN1CC(S(=O)(=O)NC(=O)Nc2c3c(cc4c2CCC4)CCC3)C1 [US20250115591, Example 21] has an IC50 of under 10 µM.
Compound CC(=O)N1CCC(S(=O)(=O)NC(=O)Nc2c3c(cc4c2CCC4)CCC3)CC1 [US20250115591, Example 3] has an IC50 of under 10 µM.
N=C(N)N1CC(S(=O)(=O)NC(=O)Nc2c3c(cc4c2CCC4)CCC3)C1 [US20250115591, Example 113] gave an IC50 of under 1 µM.
For N#CCN1CC(S(=O)(=O)NC(=O)Nc2c3c(cc4c2CCC4)CCC3)C1 [US20250115591, Example 87], the IC50 was under 10 µM.
In the case of COC(=O)CN1CC(S(=O)(=O)NC(=O)Nc2c3c(cc4c2CCC4)CCC3)C1 [US20250115591, Example 78], the IC50 is reported as under 10 µM.
O=C(Nc1c2c(cc3c1CCC3)CCC2)NS(=O)(=O)C1CNC1 [US20250115591, Example 42] showed an IC50 of under 10 µM.
With CN1CC(N2[C@@H]3CC[C@H]2C[C@@H](S(=O)(=O)NC(=O)Nc2c4c(cc5c2CCC5)CCC4)C3)C1 [US20250115591, Example 146] the IC50 was under 10 µM.
